Data as given in patent US20240139185A1, “COMPOUNDS THAT PARTICIPATE IN COOPERATIVE BINDING AND USES THEREOF” (Revolution Medicines, Inc., priority 2018, published 2024).
Read-outs that look alike come from different tables or passages of the source.

Assays:
[1] = target: T1, BRAF-GTP-KRAS-G12C complex (Homo sapiens, UniProt P01116+P62937, G12C); assay: KRAS-BRAF complex disruption through competition with CYPA-compound by TR-FRET; details: biochemical BRAF-KRAS G12C-GTP disruption assay EC50, with CYPA
T1 construct: 50 nM of His6-KRas G12C-GTP (1-169); 500 nM of tagless CypA (1-165)
Method in brief: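 Compound-driven loss of KRAS–BRAF RBD TR-FRET signal, Eu-anti-His/APC-anti-GST pair (10/50 nM, 1.5 h), following a 3 h room-temperature preincubation of 50 nM His6-KRAS G12C-GTP and 500 nM CypA in 25 mM Hepes pH 7.3 buffer. EC50 by 4-parameter fit. Variants used wild-type KRAS in place of G12C or no CypA.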

cyclophilin A (CYPA) = cyclophilin A (CYPA) (Homo sapiens, UniProt P62937); assay: CYPA-compound binary complex formation by SPR; details: read-out: CYPA Binding Affinity
Method in brief: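 Steady-state fit of SPR responses gave binding affinity. Analyte series: 50 μM downward, 2-fold, 10 points, running buffer HBS-P+ (0.05% Tween20, pH7.4, 2% DMSO), 60 s on/60 s off. Surface: biotinylated CypA-Avi captured at 4 μg/ml against a reference cell, regenerated with NaOH/guanidine.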

pERK in H358 cells = assay: pERK inhibition in H358 cells; type: cell-based, human; details: read-out: Cellular pERK inhibition
Method in brief: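 Human lung cancer H358 cells in RPMI/10% FBS were exposed to compound or DMSO for 4 h. Fixed and permeabilized cells were stained overnight at 4 C with anti-phospho-ERK1/2 (Thr202/Tyr204). Near-infrared imaging read the pERK signal at 800 nm, with DRAQ5 at 700 nm.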

Structure (SMILES)	EC50 [1]	Kd (cyclophilin A (CYPA))	IC50 (pERK in H358 cells; 4 hours treatment)	IC50 (pERK in H358 cells; Homo sapiens, NCI-H358, 4 hours treatment)
CC(C)[C@@H](C(=O)N[C@H]1Cc2cc(O)cc(c2)-c2ccc3c(C(C#N)C4CC4)cn(c3c2)C[C@H](C)COC(=O)[C@@H]2CCCN(N2)C1=O)N(C)C(=O)C1CN(C(=O)CCl)C1 (stereo partly drawn) [Compound 78]	≤ 0.5 µM	5 to 15 µM	1 to 10 µM	
CC(C)[C@@H](C(=O)N[C@H]1Cc2cc(O)cc(c2)-c2ccc3c(Cc4ccccn4)cn(c3c2)C[C@H](C)COC(=O)[C@@H]2CCCN(N2)C1=O)N(C)C(=O)C1CN(C(=O)CCl)C1 [Compound 69]	≤ 0.5 µM	≤ 5 µM	1 to 10 µM	
CC#CC(=O)N1CC2(CCN([C@H](C(=O)N[C@H]3Cc4cc(O)cc(c4)-c4ccc5c(C(C)(C)C#N)cn(c5c4)CC(C)(C)COC(=O)[C@@H]4CCCN(N4)C3=O)C(C)C)C2=O)C1 [Compound 259]	0.5 to 5 µM	5 to 15 µM	> 10 µM	
CC1COC(=O)C2CCCN(N2)C(=O)C(NC(=O)C(C(C)C)N(C)C(=O)C2CN(C(=O)CCl)C2)Cc2cc(O)cc(c2)-c2ccc3c4c(n(c3c2)C1)CCC4C#N (mixture of isomers) [Compound 74]	≤ 0.5 µM	≤ 5 µM	1 to 10 µM	
CC(C)[C@@H](C(=O)N[C@H]1Cc2cc(O)cc(c2)-c2ccc3c(-c4ccccc4F)cn(c3c2)CC(C)(C)COC(=O)[C@@H]2CCCN(N2)C1=O)N(C)C(=O)C1CN(C(=O)CCl)C1 [Compound 242]	≤ 0.5 µM	> 15 µM	1 to 10 µM	
C=CC(=O)N1CCC1C(=O)N(C)C(C(=O)NC1Cc2cc(O)cc(c2)-c2ccc3c(C(F)F)nn(c3c2)CC(C)COC(=O)C2CCCN(N2)C1=O)C(C)C (stereo not drawn) [Compound 204]	> 5 µM	5 to 15 µM	1 to 10 µM	
C=CC(=O)N1CCC(C(=O)N(C)C(C(=O)NC2Cc3cc(O)cc(c3)-c3ccc4c(-c5c(COC)noc5C)cn(c4c3)CC(C)(C)COC(=O)C3CCCN(N3)C2=O)C(C)C)C1 (stereo not drawn) [Compound 394]	0.5 to 5 µM	5 to 15 µM	> 10 µM	
CC(C)C(C(=O)NC1Cc2cc(O)cc(c2)-c2ccc3c(C(C)(C)C#N)cn(c3c2)CC(C(F)F)COC(=O)C2CCCN(N2)C1=O)N(C)C(=O)C1CN(C(=O)CCl)C1 (single isomer, unassigned) [Compound 36]	≤ 0.5 µM	5 to 15 µM	1 to 10 µM	
Cc1cnn(C)c1-c1cn2c3cc(ccc13)-c1cc(O)cc(c1)C[C@H](NC(=O)[C@H](C(C)C)N(C)C(=O)C1CN(C(=O)CCl)C1)C(=O)N1CCC[C@H](N1)C(=O)OCC(C)(C)C2 [Compound 240]	≤ 0.5 µM	5 to 15 µM	1 to 10 µM	
C=CC(=O)N1CCC(C(=O)N(C)C(C(=O)NC2Cc3cc(O)cc(c3)-c3ccc4c(c3)c(cn4C(C#N)(CC)CC)CC(C)(C)COC(=O)C3CCCN(N3)C2=O)C(C)CC)C1 (stereo not drawn) [Compound 405]	0.5 to 5 µM	5 to 15 µM	≤ 1 µM	
CC(C)[C@@H](C(=O)N[C@H]1Cc2cc(O)cc(c2)-c2ccc3c(CCC#N)cn(c3c2)CC(C)(C)COC(=O)[C@@H]2CCCN(N2)C1=O)N(C)C(=O)C1CN(C(=O)CCl)C1 [Compound 256]	≤ 0.5 µM	≤ 5 µM	≤ 1 µM	
CC(C)C1COC(=O)[C@@H]2CCCN(N2)C(=O)[C@@H](NC(=O)[C@H](C(C)C)N(C)C(=O)C2CN(C(=O)CCl)C2)Cc2cc(O)cc(c2)-c2ccc3c(C(C)(C)C#N)cn(c3c2)C1 (stereo partly drawn) [Compound 246]	≤ 0.5 µM	5 to 15 µM	1 to 10 µM	
COc1ccc(-c2cn3c4cc(ccc24)-c2cc(O)cc(c2)C[C@H](NC(=O)[C@H](C(C)C)N(C)C(=O)C2CN(C(=O)CCl)C2)C(=O)N2CCC[C@H](N2)C(=O)OC[C@@H](C)C3)cc1 [Compound 50]	≤ 0.5 µM	5 to 15 µM	1 to 10 µM	
CC(C)[C@@H](C(=O)N[C@H]1Cc2cc(O)cc(c2)-c2ccc3c(C#N)ccc(c3c2)OCCCOC(=O)[C@@H]2CCCN(N2)C1=O)N(C)C(=O)C1CN(C(=O)CCl)C1 [Compound 185]	0.5 to 5 µM	≤ 5 µM	> 10 µM	
COc1ccccc1-c1cn2c3cc(ccc13)-c1cc(O)cc(c1)CC(NC(=O)C(C(C)C)N(C)C(=O)C1CN(C(=O)CCl)C1)C(=O)N1CCCC(N1)C(=O)OCC(C)C2 (stereo not drawn) [Compound 48]	≤ 0.5 µM	5 to 15 µM	1 to 10 µM	
CC(C)[C@@H](C(=O)N[C@H]1Cc2cc(O)cc(c2)-c2ccc3c(-c4ccccc4Cl)cn(c3c2)CC(C)(C)COC(=O)[C@@H]2CCCN(N2)C1=O)N(C)C(=O)C1CN(C(=O)CCl)C1 [Compound 241]	≤ 0.5 µM	> 15 µM	1 to 10 µM	

Structure (SMILES)	EC50 [1]	Kd (cyclophilin A (CYPA))	IC50 (pERK in H358 cells; 4 hours treatment)	IC50 (pERK in H358 cells; Homo sapiens, NCI-H358, 4 hours treatment)
CC(C)[C@@H](C(=O)N[C@H]1Cc2cc(O)cc(c2)-c2ccc3c(Cl)cn(c3c2)CC(C)(C)COC(=O)[C@@H]2CCCN(N2)C1=O)N(C)C(=O)C1CN(C(=O)CCl)C1 [Compound 104]	≤ 0.5 µM	> 15 µM	≤ 1 µM	
C=CC(=O)N1CCN([C@H](C(=O)N[C@H]2Cc3cc(O)cc(c3)-c3ccc4c(C)cn(c4c3)CC(C)(C)COC(=O)[C@@H]3CCCN(N3)C2=O)C(C)C)C1=O [Compound 97]	≤ 0.5 µM	> 15 µM	> 10 µM	
CC1COC(=O)C2CCCN(N2)C(=O)C(NC(=O)C(C(C)C)N(C)C(=O)C2CN(C(=O)CCl)C2)Cc2cc(O)cc(c2)-c2ccc3c(c2)N(C1)CC3(C)C#N (mixture of isomers) [Compound 224]	≤ 0.5 µM	≤ 5 µM	1 to 10 µM	
C=CC(=O)N1CCN([C@H](C(=O)N[C@H]2Cc3cc(O)cc(c3)-c3ccc4nc(C)n(c4c3)CC(C)(C)COC(=O)[C@@H]3CCCN(N3)C2=O)C(C)C)C1=O [Compound 1, (2S)-2-(3-acryloyl-2-oxoimidazolidin-1-yl)-N-((6^3S,4S)-2^5-hydroxy-1^2,10,10-trimethyl-5,7-dioxo-6^1,6^2,6^3,6^4,6^5,6^6-hexahydro-1^1H-8-oxa-1(6,1)-benzo[d]imidazola-6(1,3)-pyridazina-2(1,3)-benzenacycloundecaphane-4-yl)-3-methylbutanamide]	≤ 0.5 µM	5 to 15 µM		> 10 µM
CC1COC(=O)[C@@H]2CCCN(N2)C(=O)[C@@H](NC(=O)[C@H](C(C)C)N(C)C(=O)C2CN(C(=O)CCl)C2)Cc2cc(O)cc(c2)-c2ccc3c(c2)N(CCO3)C1 (single isomer, unassigned) [Compound 184]	0.5 to 5 µM	≤ 5 µM	> 10 µM	
CC(C)C(C(=O)NC1Cc2cc(O)cc(c2)-c2ccc3c(C(C)(C)C#N)cn(c3c2)CC(C)(C)COC(=O)C2CCCN(N2)C1=O)N(C)C(=O)C1CCN(C(=O)CCl)C1 (stereo not drawn) [Compound 33]	≤ 0.5 µM	5 to 15 µM	≤ 1 µM	
CC1COC(=O)C2CCCN(N2)C(=O)C(NC(=O)C(C(C)C)N(C)C(=O)C2CN(C(=O)CCl)C2)Cc2cc(O)cc(c2)-c2ccc3c(C(C)C#N)cn(c3c2)C1 (stereo not drawn) [Compound 77]	≤ 0.5 µM	≤ 5 µM	≤ 1 µM	
CCc1c(-c2ccccc2OC)n2c3cc(ccc13)-c1cc(O)cc(c1)C[C@H](NC(=O)[C@H](C(C)C)N(C)C(=O)C1CN(C(=O)CCl)C1)C(=O)N1CCC[C@H](N1)C(=O)OC[C@@H](C)C2 [Compound 86]	≤ 0.5 µM	> 15 µM	≤ 1 µM	
CC(C)C(C(=O)NC1Cc2cc(O)cc(c2)-c2ccc3c(C(C)(C)C#N)cn(c3c2)CC(C)(C)COC(=O)C2CCCN(N2)C1=O)N1CCC2(CN(C(=O)CCl)C2)C1=O (stereo not drawn) [Compound 44]	≤ 0.5 µM	5 to 15 µM	1 to 10 µM	
CC1COC(=O)C2CCCN(N2)C(=O)C(NC(=O)C(C(C)C)N(C)C(=O)C2CN(C(=O)C(C)Cl)C2)Cc2cc(O)cc(c2)-c2ccc3c(C(C)(C)C#N)cn(c3c2)C1 (stereo not drawn) [Compound 18]	0.5 to 5 µM	> 15 µM	> 10 µM	
C=CC(=O)N1CCN([C@H](C(=O)N[C@H]2Cc3cc(O)cc(c3)-c3ccc4cnn(c4c3)CC(C)(C)COC(=O)[C@@H]3CCCN(N3)C2=O)C(C)C)C1=O [Compound 199]	0.5 to 5 µM	5 to 15 µM	> 10 µM	
CC(C)[C@@H](C(=O)N[C@H]1Cc2cc(O)cc(c2)-c2ccc3c(C(C)(C)C#N)cn(c3c2)CC(CO)COC(=O)[C@@H]2CCCN(N2)C1=O)N(C)C(=O)C1CN(C(=O)CCl)C1 (single isomer, unassigned) [Compound 22]	≤ 0.5 µM	5 to 15 µM	> 10 µM	
CC(C)[C@@H](C(=O)N[C@H]1Cc2cc(O)cc(c2)-c2ccc3c(C(C)(C)C#N)cn(c3c2)CC(C)(C)COC(=O)[C@@H]2CCCN(N2)C1=O)N(C)C(=O)C1(F)CN(C(=O)[C@@H](C)Cl)C1 [Compound 35]	> 5 µM	5 to 15 µM	> 10 µM	
C=CC(=O)N1CC2(CCN(C(C(=O)NC3Cc4cc(O)cc(c4)-c4ccc5c(C(C)(C)C#N)cn(c5c4)CC(C)(C)COC(=O)C4CCCN(N4)C3=O)C(C)C)C2=O)C1 (stereo not drawn) [Compound 42]	0.5 to 5 µM	5 to 15 µM	1 to 10 µM	
CC1COC(=O)C2CCCN(N2)C(=O)C(NC(=O)C(C(C)C)N(C)C(=O)C2CN(C(=O)CCl)C2)Cc2cc(O)cc(c2)-c2ccc3c4c(n(c3c2)C1)COCC4(C)C#N (mixture of isomers) [Compound 62]	≤ 0.5 µM	5 to 15 µM	≤ 1 µM	
